Source: patent US8071548B2, “Method of reducing injury to mammalian cells” (Nono, Inc., priority 2002, dated 2011)
Residues, ends and D or L forms follow the SMILES beside them. No end group written: not given here. *: point of attachment. Cbz = O=C(OCc1ccccc1)*

Tests used:
[1] = system: cortical neuronal cultures; assay: Sublethal stretch injury with or without NMDA, cell death in cortical cultures; type: cell-based
Procedure: […]. In brief, cerebral cortices from 10 to 12 embryos were incubated for 10 min in 0.05% trypsin-EDTA, dissociated by trituration, and plated on flexible membranes coated with poly-L-ornithine in 6 well plates (Flexcell International Corporation, Hillsborough, N.C.) at a density of 3.25×10^6 cells per well. Plating medium consisted of DMEM supplemented with 10% heat-inactivated horse serum (Gibco) and (in mM) 2 glutamine, 25 glucose, and 26 bicarbonate. The cultures were maintained at 37° C. in a humidified 5% CO2 atmosphere. After 3 days in vitro, growth of non-neuronal cells was halted by a 48 h exposure to 10 μM FDU-solution (5 μM uridine, 5 μM (+)-5-fluor-2′-deoxyuridine). This produces cultures in which >85% of the cells are neurons, based on immunohistochemical staining for glial fibrillary associated protein (exclusive to astrocytes), and for the NMDAR1 subunit (not shown). The cultures were used for experiments after 12-14 days in vitro.
The cultures, grown on silastic membranes as above, were placed in the Flexercell® FX-3000™ Strain Unit (Flexcell Int., Inc.), a computer-driven instrument that uses a vacuum pulse to deform the culture substrate. In all experiments, the cortical cultures were stretched to 130% of their original length for 1 s, inducing a sublethal injury as recently characterized by us (Arundine et al., 2003). The stretched neurons maintained cell membrane integrity, viability, and electrophysiological function.
Cell death was determined by serial quantitative measurements of propidium iodide (PI) fluorescence using a multiwell plate fluorescence scanner (Cytofluor II, PerSeptive Biosytems, Framingham, Mass., USA) as described previously (Sattler et al., 1997; Sattler et al., 1998). In brief, the culture medium in each tissue culture well was replaced with control solution containing 50 μg/ml PI, and a baseline fluorescence reading was taken. Sequential readings were then taken at appropriate intervals over the 20 h observation period. The fraction of dead cells in each culture at a given time was calculated as: Fraction dead=(Ft−Fo)/FNMDA Where Ft=PI fluorescence at time t, F0=initial PI fluorescence at time zero and FNMDA=background subtracted PI fluorescence of identical cultures from the same dissection and plating, 20-24 h after a 60 min exposure to 1 mM NMDA at 37° C. Based on manual observations at the time of validation of this technique, this NMDA exposure routinely produced near complete neuronal death in each culture but had no effect on surrounding glia (also see (Bruno et al., 1994; David et al., 1996; Sattler et al., 1997)). Adding Triton X-100 (0.1%) to cultures treated in this manner produced an additional 10-15% increase in PI fluorescence due to permeabilization of non-neuronal cell membranes, consistent with a 10-15% glial component in the cultures.
All experiments were performed at 37° C. Unless otherwise indicated, all solutions contained nimodipine (2 μM) and CNQX (10 μM) to restrict the actions of applied NMDA to NMDARs by preventing the secondary activation of other pathways (Sattler et al., 1998). In general, the cultures were washed ×2 with control solution and immediately stretched to 130% of their original length for 1 s. After the stretch, they were washed ×1 with control solution alone or challenged with an additional treatment (e.g., NMDA) and placed at 37° C. for 1 h. They were then washed ×1 with control solution and then with control solution containing 50 μg/ml PI to obtain a baseline reading. In pilot studies, baseline readings obtained at this stage were similar to those obtained by staining the cells with PI prior to stretch. As the stretch causes splashing of the bath solution, staining with PI after stretch reduced biohazard potential and artifacts associated with PI outside the culture well. Unstretched controls were manipulated identically to stretched cultures.

[2] = system: cortical neuronal cultures; assay: DNA fragmentation assays (TUNEL, DNA gel electrophoresis); type: cell-based, mouse; conditions: 20 h post-insult; 200 μM MnTBAP or 100 μM L-NAME
From the text: DNA fragmentation was examined using the terminal deoxynucleotidyl transferase-mediated end nick labeling (TUNEL) method (Gavrieli et al., 1992; Didenko and Hornsby, 1996; Didenko et al., 1998) and by DNA agarose gel electrophoresis (Hill et al., 2000).
TUNEL Assay: Nuclear DNA strand breaks were detected by enzymatically labeling free 3′-OH termini with modified nucleotides provided in the Apoptag kit (Intergen) using the manufacturer's instructions. Visualization of TUNEL-stained nuclei was achieved using an anti-digoxigenin antibody conjugated to a fluorescein or peroxidase reporter molecule (ApopTag Peroxidase Kits S7110 and S7100, respectively, Intergen). In fluorescence experiments, nuclei were counterstained using 5 ng/ml Hoechst 33258 (1:5000, Transduction Labs), and visualized using 465-495 nm excitation and 515-555 nm emission for fluorescein and 340 nm excitation and 510-40 nm emission for Hoechst. The number of TUNEL positive cells was expressed as a fraction of the total cell number in the field. In each culture, 4-8 random fields were quantified. Approximately 100-200 cells were counted per culture, and at least 3 experiments were performed for each set of counts.
DNA Gel Electrophoresis: DNA laddering was evaluated as described elsewhere (Hill et al., 2000). In brief, all tissue was collected from each culture well and pelleted by centrifugation (1000 rpm; 1 min). The cells were digested for 2 h at 56° C. in buffer containing (in mM) 10 Tris pH 8.0, 2 EDTA pH8, 400 NaCl, 0.5% SDS, 1 mg/ml proteinase K. Digest solution was subjected to phenol/chloroform extraction and total DNA was precipitated from the aqueous layer with an equal volume of 100% ethanol. The DNA pellet was dried, dissolved in 50 μl ddH20 and kept overnight at 4° C. 10 μg DNA was prepared on a 2% agarose gel. Gels were stained with ethidium bromide and photographed.

[3] = system: cultured cortical neurons; assay: NMDA excitotoxicity in cultured cortical neurons (propidium iodide fluorescence); type: cell-based, mouse
[4] = system: transient unilateral middle cerebral artery occlusion; conditions: MCAO 90 min
[5] = Physiological variables in pre-treatment MCAO study; type: in vivo, Sprague-Dawley rats
Procedure: Next, I examined whether pretreatment with Tat-peptides would reduce stroke damage. Experiments were carried out in adult male Sprague-Dawley rats subjected to transient middle cerebral artery occlusion (MCAO) for 90 minutes by the intraluminal suture method (36,37). Animals were fasted overnight and injected with atropine sulfate (0.5 mg/kg IP). After 10 minutes anesthesia was induced with 3.5% halothane in a mixture of nitrous oxide and oxygen (Vol. 2:1) and maintained with 0.8% halothane. Rats were orally intubated, mechanically ventilated, and paralyzed with pancuronium bromide (0.6 mg/kg IV). Body temperature was maintained at 36.5-37.5° C. with a heating lamp. Polyethylene catheters in the femoral artery and vein were used to continuously record blood pressure and to sample blood for gas and pH measurements. […] This produces an extensive infarction encompassing the cerebral cortex and basal ganglia. […] Physiological parameters (body temperature, blood pressure, blood gases) were monitored and maintained throughout the experiment (Table 1). All experimental manipulations and analyses of data were performed by individuals blinded to the treatment groups. The extent of cerebral infarction was measured 24 h after MCAO onset (FIG. 7C inset). The postural reflex test (38), and the forelimb placing test (39) were used to grade neurological function on a scale of 0 to 12 (normal=0; worst=12) during MCAO (at 50 minutes) and 24 h thereafter.

[6] = Physiological variables in post-treatment MCAO study; type: in vivo, Sprague-Dawley rats
Procedure: Next, I examined whether treatment with Tat-NR2B9c could attenuate ischemic neuronal damage in-vivo when given after stroke onset. […] Infarction volume and neurological outcome measurements were performed at times identical to the pre-treatment study. Body temperature, blood pressure and blood gases were monitored throughout the 24 h experiment and maintained equivalent between groups (Table 2).

In the case of CC(C)[C@H](NC(=O)OCc1ccccc1)C(=O)N[C@H](C=O)Cc1ccccc1 [Calpain inhibitor III, z-val-phe-CHO] (Cbz-Val-Phe-aldehyde), the “heightened vulnerability of stretched neurons to NMDA” value ([1]; 10 μM) is reported as “not reduced”, the “toxic effects in control or stretched cultures” value ([1]; 10 μM) is reported as “no toxic effects” and the “protection of cells challenged with 30 μM or 1 mM NMDA” value ([1]; 10 μM, whether or not stretched) is reported as “slightly protected”.

With COC(=O)[C@@H](N)CCCNC(=N)N[N+](=O)[O-] [L-NAME, N^G-nitro-L-arginine methyl ester] the “DNA laddering after stretch followed by NMDA” value [2] was “virtually abolished”, the “TUNEL staining after stretch followed by NMDA” value [2] was “virtually abolished” and the “enhanced vulnerability of stretched neurons to NMDA” value ([1]; 100 μM, 30 min preincubation) was “completely eliminated the enhanced vulnerability”. For the same molecule, the “toxicity of 30 μM NMDA in unstretched neurons” value ([1]; 100 μM, 30 min preincubation) was “reduced the toxicity” and the “protection against NMDA toxicity” value ([3]; cultured cortical neurons) was “protected”.

With “YGRKKRRQRRRKLSSIEADA [Tat-NR2B-AA, reference compound]” the “Mean (SE) core temperature during surgery” value [4] was 37.2 (∀0.2), the “Mean (SE) core temperature subsequent to surgery” value [4] was 37.3 (∀0.1) and the “Mean (SE) systolic blood pressure during surgery” value [4] was 109 (∀5.9). For the same molecule, the “Mean (SE) systolic blood pressure prior to surgery” value [4] was 113 (∀8.8), the “Mean (SE) systolic blood pressure subsequent to surgery” value [4] was 115 (∀5.9) and the “Mean (SE) core temperature prior to surgery” value ([4]; drug i.v. 3 hours after onset of ischemia) was 36.9 (∀0.1). For the same molecule, the “toxic effects in control or stretched cultures” value ([1]; 50 nM) was “no toxic effects”, the “Body Temperature” value ([5]; After MCAo (15 min)) was 36.8 ± 0.08 °C and the “Body Temperature” value ([5]; After MCAo (24 hr)) was 37.0 ± 0.25 °C. The Body weight ([5]; After MCAo (24 hr)) was 244 ± 6 g, the “Body Temperature” value ([5]; Before MCAo(15 min)) was 36.6 ± 0.15 °C and the MABP ([5]; Before MCAo(15 min)) was 115 ± 5 mmHg. The “Blood gases PCO2” value ([5]; Before MCAo(30 min)) was 39.1 ± 1.4 mmHg, the “Blood gases PH” value ([5]; Before MCAo(30 min)) was 7.44 ± 0.02 and the “Blood gases PO2” value ([5]; Before MCAo(30 min)) was 110 ± 7 mmHg. The “Body Temperature” value ([5]; Before MCAo(30 min)) was 36.5 ± 0.12 °C, the MABP ([5]; Before MCAo(30 min)) was 110 ± 4 mmHg and the “Body Temperature” value ([5]; Before MCAo(45 min)) was 36.7 ± 0.17 °C. For the same molecule, the MABP ([5]; Before MCAo(45 min)) was 115 ± 5 mmHg, the Body weight ([5]; Before anesthesia) was 273 ± 7 g and the “Blood gases PCO2” value ([5]; During MCAo (5 min)) was 39.6 ± 0.5 mmHg. The “Blood gases PH” value ([5]; During MCAo (5 min)) was 7.44 ± 0.02, the “Blood gases PO2” value ([5]; During MCAo (5 min)) was 109 ± 4 mmHg and the “Body Temperature” value ([5]; During MCAo (5 min)) was 36.6 ± 0.17 °C. For the same molecule, the MABP ([5]; During MCAo (5 min)) was 135 ± 7 mmHg, the “Body Temperature” value ([5]; During MCAo (15 min)) was 36.7 ± 0.15 °C and the MABP ([5]; During MCAo (15 min)) was 111 ± 6 mmHg. For the same molecule, the “Body Temperature” value ([6]; After MCAo (15 min)) was 36.9 ± 0.23 °C, the MABP ([6]; After MCAo (15 min)) was 116 ± 4 mmHg and the “Body Temperature” value ([6]; After MCAo (24 hr)) was 36.7 ± 0.27 °C. The Body weight ([6]; After MCAo (24 hr)) was 276 ± 6 g, the “Blood gases PCO2” value ([6]; Before MCAo(15 min)) was 37.9 ± 1.1 mmHg and the “Blood gases PH” value ([6]; Before MCAo(15 min)) was 7.45 ± 0.01. For the same molecule, the “Blood gases PO2” value ([6]; Before MCAo(15 min)) was 113 ± 4 mmHg, the “Body Temperature” value ([6]; Before MCAo(15 min)) was 36.7 ± 0.07 °C and the MABP ([6]; Before MCAo(15 min)) was 103 ± 6 mmHg. The Body weight ([6]; Before anesthesia) was 301 ± 5 g, the “Blood gases PCO2” value ([6]; During MCAo (15 min)) was 48.0 ± 1.2 mmHg and the “Blood gases PH” value ([6]; During MCAo (15 min)) was 7.46 ± 0.01. For the same molecule, the “Blood gases PO2” value ([6]; During MCAo (15 min)) was 108 ± 2 mmHg, the “Body Temperature” value ([6]; During MCAo (15 min)) was 36.7 ± 0.11 °C and the MABP ([6]; During MCAo (15 min)) was 121 ± 5 mmHg. The “Body Temperature” value ([6]; During MCAo (60 min)) was 37.0 ± 0.31 °C, the MABP ([6]; During MCAo (60 min)) was 149 ± 4 mmHg and the “Body Temperature” value ([6]; During MCAo (65 min)) was 37.0 ± 0.29 °C. For the same molecule, the MABP ([6]; During MCAo (65 min)) was 136 ± 5 mmHg.

B1: pTat-GK: Tat fusion protein containing residues 534-724 of PSD-95, guanylate-kinase homology domain; control (protein)
chain: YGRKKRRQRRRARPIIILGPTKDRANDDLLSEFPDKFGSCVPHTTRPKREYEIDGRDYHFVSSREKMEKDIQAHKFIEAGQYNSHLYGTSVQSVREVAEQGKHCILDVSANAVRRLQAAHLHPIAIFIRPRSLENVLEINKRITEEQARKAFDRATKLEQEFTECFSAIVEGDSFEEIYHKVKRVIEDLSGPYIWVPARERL
modifications: left off: small tags and cut ends
notes: Tat fusion protein containing residues 534-724 of PSD-95, guanylate-kinase homology domain; control
With B1 the “enhanced cell mortality in stretched neurons by NMDA challenge, post-treatment” value ([1]; 50 nM applied after terminating the 1 h NMDA challenge) was “ineffective” and the “NMDA-evoked cell death, pre-treatment” value ([3]; 50 nM for 1 h, then NMDA 0-100 μM 1 h, 20 h observation) was “had no effect”.
